From PubChem BioAssay AID1552 (Sanford-Burnham Center for Chemical Genomics, 2009) come the findings set out here.

Calls of active or inactive are those of the source. The rule behind the calls is not given here. Bounds are passed on as bounds.

The term Kd denotes the constant that tells how readily two partners part at equilibrium.

The target of this experiment is Ubiquitin-conjugating enzyme E2 N (Homo sapiens) (UniProt P61088). Put plainly: NMR detection of UBE2N ligand binding – biophysical, purified protein (AID 1552). As to conditions: NMR binding to purified UBE2N.
Chain of Ubiquitin-conjugating enzyme E2 N (Homo sapiens) (P61088 whole entry, looked up): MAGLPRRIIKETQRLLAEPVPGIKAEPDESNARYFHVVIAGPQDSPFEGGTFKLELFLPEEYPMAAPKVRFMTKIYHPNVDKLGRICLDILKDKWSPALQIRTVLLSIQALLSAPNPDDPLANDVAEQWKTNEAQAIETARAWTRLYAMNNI
For the molecule `CCc1ccccc1NC(=O)c1cnccn1`, the Kd was > 4 mM (inactive). `O=C1CSC(=O)N1c1cccc(O)c1`: the Kd is > 4 mM (inactive). Regarding `COC(=O)CSc1n[nH]c(N)n1`, the Kd is > 4 mM (inactive).

`NCc1n[nH]c(=O)c2ccccc12`: the Kd is > 4 mM (inactive).

Take `O=C(O)CCC1NCC2CC1CN1CCCCC21` (centres undefined): the Kd was > 4 mM (inactive). In the case of `O=C(CS(=O)(=O)c1ccccc1)Nc1nccs1`, the Kd is > 4 mM (inactive).

With `COC(=O)N1CCN(c2ccc(OC)cc2)CC1`, the Kd was > 4 mM (inactive). Regarding `O=C1CCNc2ccccc2N1`, the Kd is > 4 mM (inactive). On to `C[C@H]1[C@H](C)CC[C@]2(CO)CC[C@]3(C)C(=CCC4[C@@]5(C)CC[C@H](O)C(C)(C)C5CC[C@]43C)[C@H]12` (some centres undefined), for which the Kd was > 4 mM (inactive). In the case of `CC(C)=CCc1c2c(c3occ(-c4ccc(O)c(O)c4)c(=O)c3c1O)C=CC(C)(C)O2` it was > 4 mM (inactive); in that of `O=C1C2CCCCC2C(=O)N1c1ccc(O)cc1` (centres undefined), > 4 mM (inactive); in that of `Cc1noc(-c2ccccc2)c1CO`, > 4 mM (inactive). On to `OCc1c[nH]c2ccccc12`, for which the Kd was > 4 mM (inactive). Turning to `Cc1cc(=O)n2[nH]c(N)nc2n1`, the Kd is > 4 mM (inactive). As for `CN1CCC=C(C(=O)O)C1`, the Kd is > 4 mM (inactive). For `NC(=O)CSc1nc2ncnc(N)c2[nH]1`, the Kd was > 4 mM (inactive). As for `O=c1[nH]c(O)c(C=NCc2cccs2)c(=O)[nH]1`, the figure is > 4 mM (inactive); as for `c1ccc(Cn2c(Nn3cnnc3)nc3ccccc32)cc1`, > 4 mM (inactive). As to `CC1(C)C(=O)N(O)C(C)(C)C(=O)N1O`, the Kd is > 4 mM (inactive). On to `CN(C)c1n[nH]c(=O)[nH]c1=O`, for which the Kd is > 4 mM (inactive). As for `S=C(NCc1ccco1)NN1CCOCC1`, the figure is > 4 mM (inactive); as for `CC1(C)CC(NC(=O)/C=C/C(=O)O)CC(C)(C)N1`, > 4 mM (inactive). `C=C1C([C@]2(C)C(CC(=O)OC)[C@@](C)(COC(C)=O)OC(=O)C[C@@H]2OC(C)=O)[C@@H](OC=O)[C@H](OC(=O)C(OC(C)=O)C(C)CC)[C@@]2(C)[C@H](c3ccoc3)CC(=O)C12O` (some centres undefined): the Kd is > 4 mM (inactive). As for `c1ccc(Cc2nnc3sc(-c4cccnc4)nn23)cc1`, the figure is > 4 mM (inactive). With `CCN1CCN(c2ncnc3c2nnn3C)CC1`, the Kd is > 4 mM (inactive). For `CC(=O)Nc1ccc(N(C)C(C)=O)cc1`, the Kd was > 4 mM (inactive).

Consider `COc1cc(O)c(C)c(O)c1`, for which the Kd is > 4 mM (inactive). Regarding `CC(C)=NNC(=O)c1ccccc1`, the Kd is > 4 mM (inactive). Consider `O=C(OCc1c(F)cccc1Cl)c1cnccn1`, for which the Kd was > 4 mM (inactive).

On to `C=CCc1ccc(OC(=O)c2ccccc2)c(OC)c1`, for which the Kd was > 4 mM (inactive). For `COc1c2c(cc3occ(-c4ccc5c(c4)OCO5)c(=O)c13)OC(C)(C)C=C2`, the Kd was > 4 mM (inactive). In the case of `CC(=O)Nc1ccc(S(N)(=O)=O)cc1` it was > 4 mM (inactive); in that of `c1ccc(CCNc2ncnc3nc[nH]c23)cc1`, > 4 mM (inactive). On to `Cc1nnsc1C(=O)Nc1ccc(C(N)=O)cc1`, for which the Kd is > 4 mM (inactive). With `O=c1[nH]c2ccc(S(=O)(=O)NC3CC3)cc2[nH]1`, the Kd is > 4 mM (inactive). Take `Cc1nccc(-c2cccc(N)c2)n1`: the Kd is > 4 mM (inactive).

Turning to `CC(NC(=O)c1ccco1)c1ccc2c(c1)OCCO2` (centres undefined), the Kd was > 4 mM (inactive). Regarding `COc1cc2c(c(OC)c1OC)-c1ccc(O)c(=O)cc1[C@@H](NC(C)=O)CC2`, the Kd is > 4 mM (inactive).

`O=c1c(O)c(-c2ccc(O)c(O)c2)oc2cc(O)ccc12`: the Kd is > 4 mM (inactive). As for `Cc1ccc(C(=O)n2cnnc2N)cc1C`, the Kd is > 4 mM (inactive). In the case of `CC(=O)Nc1ccc(S(=O)(=O)N2CCN=C2C)cc1` it was > 4 mM (inactive); in that of `CNC(=S)Nc1ccc2c(c1)OCO2`, > 4 mM (inactive). Take `CC(C)[C@@H]1CC[C@@H](C)C[C@H]1OC(=O)c1ccccc1`: the Kd is > 4 mM (inactive). `COc1ccc(-c2cc(=O)c3c(O)c(OC)c(O[C@H]4O[C@H](CO[C@@H]5O[C@@H](C)[C@H](O)[C@@H](O)[C@H]5O)[C@@H](O)[C@H](O)[C@H]4O)cc3o2)cc1`: the Kd is > 4 mM (inactive). As for `Nc1ccc2c(c1)S(=O)(=O)C=C2`, the Kd was > 4 mM (inactive). `NC(=O)C1CCN(C(=O)CN2CCc3ccccc32)CC1`: the Kd is > 4 mM (inactive). Regarding `NC(=O)c1ccc(-c2ccccn2)s1`, the Kd is > 4 mM (inactive).

With `NC(=O)c1ccsc1NC(=O)c1ccccc1[N+](=O)[O-]`, the Kd is > 4 mM (inactive). Take `CC(=O)NN1C(=O)/C(=C\c2ccc(O)cc2)SC1=S`: the Kd was > 4 mM (inactive). For the molecule `O=C(O)c1ccc(N2CCCCC2)cc1`, the Kd was > 4 mM (inactive).

Consider `Cc1cc(=O)c2c(O)c(C)c(O)cc2o1`, for which the Kd was > 4 mM (inactive). Regarding `COc1ccc(-c2cc(=O)c3c(OC)c(OC)c(OC)c(OC)c3o2)cc1OC`, the Kd is > 4 mM (inactive). For the molecule `Cc1nc(-c2ccc(C(=O)O)s2)cs1`, the Kd is > 4 mM (inactive). As for `Nc1cccc2cccnc12`, the figure is > 4 mM (inactive). As to `COC(=O)c1cccs1`, the Kd is > 4 mM (inactive). Consider `Nc1nnc(-c2ccncc2)s1`, for which the Kd is > 4 mM (inactive). For `Cc1cc(C(=O)N2CCOCC2)c(C)o1`, the Kd was > 4 mM (inactive). For the molecule `Nc1ccc(N2CCCCC2)cc1`, the Kd was > 4 mM (inactive). With `CN(C)N1C(=O)C2CCCCC2C1=O` (centres undefined), the Kd was > 4 mM (inactive). In the case of `Cc1oc(S(=O)(=O)N2CCCCC2)cc1C(=O)O` it was > 4 mM (inactive). As for `c1ccc(-c2nnc3sc(-c4ccncc4)nn23)cc1`, the Kd is > 4 mM (inactive).

With `Nc1c(Nc2ccccc2)c2ccccc2oc1=O`, the Kd is > 4 mM (inactive). For `CC(=O)Oc1ccc(O)cc1`, the Kd was > 4 mM (inactive). As for `COc1ccc2cc1Oc1ccc(cc1)C[C@H]1c3cc(c(OC)cc3CCN1C)Oc1c(OC)c(OC)cc3c1[C@H](C2)N(C)CC3`, the Kd is > 4 mM (inactive). On to `O=S(=O)(Nc1cccnc1Cl)c1ccccc1`, for which the Kd is > 4 mM (inactive). As for `NC(=O)CNC(=O)c1ccccc1`, the Kd is > 4 mM (inactive). Turning to `Cc1nc(NC2=NCCC(=O)N2)nc2ccccc12`, the Kd is > 4 mM (inactive).

Regarding `CC(=O)c1ccc(CC2SC(N)=NC2=O)cc1` (centres undefined), the Kd was > 4 mM (inactive).

On to `S=C(NC1CC1)NN1CCOCC1`, for which the Kd was > 4 mM (inactive). In the case of `Cc1cccc(-n2c(N)cc(=O)[nH]c2=S)c1C`, the Kd was > 4 mM (inactive). Turning to `COc1ccc2c(c1)OC1(O)COc3cc(OC)c(OC)cc3C1=C2` (centres undefined), the Kd was > 4 mM (inactive). Turning to `Cc1ccc(Nc2nc(N)nc(CC#N)n2)cc1`, the Kd was > 4 mM (inactive).

For the molecule `Cc1ccccc1C(=O)Nc1cccc(N)c1`, the Kd is > 4 mM (inactive).

`NC12CC3CC(C1)CC(O)(C3)C2`: the Kd is > 4 mM (inactive). With `Cc1ccccc1OCC(=O)O`, the Kd is > 4 mM (inactive). As for `FC(F)(F)c1nnc2ccc(N3CCOCC3)nn12`, the figure is > 4 mM (inactive); as for `Cc1ccc(C(=O)Nc2ccncc2)o1`, > 4 mM (inactive). In the case of `COC(=O)c1cccc2cc[nH]c12` it was > 4 mM (inactive); in that of `CC(C)(OC(=O)c1ccccc1)[C@@H]1Cc2cc3ccc(=O)oc3cc2O1`, > 4 mM (inactive). Turning to `O=C(O)c1cc2ccccc2o1`, the Kd is > 4 mM (inactive). In the case of `O=C1Nc2ccccc2C1C1(O)C(=O)Nc2ccc(F)cc21` (centres undefined) it was > 4 mM (inactive); in that of `C=C[C@@](C)(O)CCC1C(=C)C[C@H](O)C2C(C)(C)CCCC12C` (some centres undefined), > 4 mM (inactive); in that of `COc1c(C(=O)N2CCCC2)ccc2ccccc12`, > 4 mM (inactive).

As to `NCc1ccc2c(c1)OCCCO2`, the Kd is > 4 mM (inactive). On to `c1coc(-c2nc(-c3ccncc3)no2)c1`, for which the Kd is > 4 mM (inactive). In the case of `Cc1ccc2cccc(OC(=O)N3CCCC3)c2n1` it was > 4 mM (inactive); in that of `S=c1[nH]nc(-c2cccnc2)n1C1CCCCC1`, > 4 mM (inactive); in that of `COc1cc(OC)c(OC)cc1C=O`, > 4 mM (inactive). Turning to `O=c1ccnc(Nc2ccccc2O)[nH]1`, the Kd is > 4 mM (inactive). Consider `O=C1CC(NCc2ccco2)C(=O)NN1` (centres undefined), for which the Kd was > 4 mM (inactive). In the case of `Cc1occc1C(=O)Nc1sccc1C(N)=O` it was > 4 mM (inactive); in that of `NC(=O)c1ccc2c(c1)OCO2`, > 4 mM (inactive).

Turning to `O=C(O)c1cc2ccccc2s1`, the Kd was > 4 mM (inactive). In the case of `COc1cccc2c1CCC1=CC(=O)CC[C@@]12C`, the Kd is > 4 mM (inactive). As to `c1n[nH]cc1-c1cn[nH]c1`, the Kd was > 4 mM (inactive). `c1cc(CNc2ccc3c(c2)OCCO3)ccn1`: the Kd was > 4 mM (inactive). For the molecule `CCOC(=O)Cc1cc(=O)n2[nH]c(C)cc2n1`, the Kd was > 4 mM (inactive).

Turning to `O=C(Nc1cnccn1)c1cccnc1`, the Kd is > 4 mM (inactive). Consider `Cc1ccc(-n2cnnn2)c2cccnc12`, for which the Kd is > 4 mM (inactive). Take `O=C(CN1CCOCC1)Nc1cccc(Br)c1`: the Kd was > 4 mM (inactive). For `COn1c(=O)c(C)[n+]([O-])c2ccccc21`, the Kd is > 4 mM (inactive). In the case of `CN=C1SC(CC(=O)Nc2ccc(O)cc2)C(=O)N1C` (centres undefined), the Kd is > 4 mM (inactive).

Take `O=C(O)c1ccc2snnc2c1`: the Kd was > 4 mM (inactive). As to `O=C1CCCN1C(=O)CN1CCOCC1`, the Kd is > 4 mM (inactive).
